Experimental data: paper PMC6407576, “Synthesis and evaluation of anticancer, antiphospholipases, antiproteases, and antimetabolic syndrome activities of some 3H-quinazolin-4-one derivatives” (Journal of Enzyme Inhibition and Medicinal Chemistry, 2019)
In brackets after ≈: the same amount, converted by molar mass. Entries after “also recorded” stand apart in the source; their conditions may differ. Read-outs that look alike come from different tables or passages of the source.

Columns and labels:
[1] = biological target: T1, human group V (hG-V) sPLA2 (Homo sapiens, UniProt P39877); experiment: In vitro antiphospholipase activity; format: biochemical
T1 sequence (P39877 21-138): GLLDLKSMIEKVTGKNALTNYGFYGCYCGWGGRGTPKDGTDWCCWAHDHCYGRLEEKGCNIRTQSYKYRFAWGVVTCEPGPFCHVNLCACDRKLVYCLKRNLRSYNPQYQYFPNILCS

[2] = system: HT-29 cells; experiment: MTT cell viability assay; format: cell-based; details: Homo sapiens, HT-29, read-out: IC50 (cell viability)
[3] = biological target: Apis mellifera bee venom (AmPLA2) (Apis mellifera, UniProt P00630); experiment: biochemical
[4] = biological target: elastase; experiment: In vitro antiprotease activity; format: biochemical; details: 15 min preincubation
Protocol: (§1) The inhibitory effects of 21 3H-quinazolin-4-one derivatives on several available therapeutically important proteases such as cathepsin-B, collagenase, elastase, thrombin, and trypsin were investigated. […] The protease inhibitory activity was expressed as inhibition percentage, which was determined by comparison with a control experiment. The results were expressed as IC50 values that were determined from the standard curve. A protease inhibitor cocktail (Sigma) was used as the positive control.

[5] = biological target: collagenase; experiment: In vitro antiprotease activity; format: biochemical; details: 15 min preincubation
Protocol: as §1

[6] = biological target: T2, trypsin (Bos taurus, UniProt P00760); experiment: In vitro antiprotease activity; format: biochemical
T2 construct: gene PRSS1
T2 sequence (P00760 24-246): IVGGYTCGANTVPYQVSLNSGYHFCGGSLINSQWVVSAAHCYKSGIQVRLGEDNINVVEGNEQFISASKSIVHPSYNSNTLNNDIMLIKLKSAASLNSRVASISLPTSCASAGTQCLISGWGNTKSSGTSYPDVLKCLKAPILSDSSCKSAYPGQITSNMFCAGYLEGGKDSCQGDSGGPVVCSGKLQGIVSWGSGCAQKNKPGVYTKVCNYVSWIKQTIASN
Protocol: as §1

[7] = biological target: cathepsin-B (Homo sapiens, UniProt P07858); experiment: In vitro antiprotease activity; format: biochemical
Protocol: as §1

[8] = biological target: thrombin (Homo sapiens, UniProt P00734); experiment: In vitro antiprotease activity; format: biochemical
Protocol: as §1

[9] = system: BclxL; experiment: Western blotting of anti-apoptotic protein expression; format: cell-based, Human; details: SW620 cells, various concentrations, 24 h, immunoblot
Protocol: (§2) Whole cell lysates were prepared using radioimmunoprecipitation assay (RIPA) lysis buffer as described by Al-Khayal and co-workers[41]. Total protein concentration was determined using Bradford protein reagent (Bio-Rad, Hercules, CA). Soluble proteins were loaded on precast TGX gels and were analysed using immunoblotting with anti-Bcl2, anti-BclxL (dilution 1:1000; Santa Cruz Biotechnology, Dallas, TX), and anti-β-actin (1:10,000 Sigma, St. Louis, MO). Reactivity was detected using horseradish peroxidase-conjugated secondary antibodies and chemiluminescence by Clarity Western ECL substrate (Bio-Rad). Membrane was developed using C-Digit Blot Scanner (LI-COR, Hamburg, Germany).
(§3) SW620 cells were treated with various concentrations of 15d for 24 h.

[10] = system: Bcl2; experiment: as above; format: cell-based, Human; details: SW620 cells, various concentrations, 24 h, immunoblot
Protocol: as §2, §3

[11] = biological target: T3, human group IIA (hG-IIA) sPLA2 (Homo sapiens, UniProt P14555); experiment: In vitro antiphospholipase activity; format: biochemical
T3 sequence (P14555 21-144): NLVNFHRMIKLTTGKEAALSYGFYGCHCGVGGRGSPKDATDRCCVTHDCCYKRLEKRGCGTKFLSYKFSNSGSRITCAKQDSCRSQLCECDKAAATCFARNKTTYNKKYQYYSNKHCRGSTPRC

[12] = system: SW620 cells; experiment: MTT cell viability assay; format: cell-based, Human
Protocol: (§4) Human CRC cell lines, HT-29 and SW620 cells were grown in RPMI (Invitrogen) containing 10% heat-inactivated foetal bovine serum, 100 µg/ml streptomycin, 100 units/ml penicillin and 2 mmol/l L-glutamine.
(§5) Cell viability was determined using the 3-(4, 5-dimethylthiazolyl-2)–2, 5-diphenyltetrazolium bromide) MTT assay according to Mosmann[40]. 5-Fluorouracil (5-FU) was used as positive control. Briefly, after culturing cells in 96 well plates for 24 h, they were treated with different compounds (30 μg/ml) for 24 h. Freshly prepared MTT (5 mM) solutions were added to the cells and were further incubated for 2 h at 37 °C in 5% CO2. One hundred microliters of dimethyl sulphoxide (DMSO) was added in each well to dissolve the formazan crystal, formed in the reaction during incubation by careful pipetting. The absorbance of the product was measured at 540 nm using a microplate reader. The experiments were performed in triplicate for each condition. The graph illustrates the mean and standard deviation (SD) values of three independent experiments.

[13] = system: HT-29 cells; experiment: MTT cell viability assay; format: cell-based, Human
Protocol: as §4, §5

[14] = system: SW620 cells; experiment: MTT cell viability assay; format: cell-based; details: Homo sapiens, SW-620, read-out: IC50 (cell viability)
[15] = biological target: xanthine oxidase (Homo sapiens, UniProt P47989); experiment: In vitro inhibition of xanthine oxidase; format: biochemical
Protocol: The xanthine oxidase inhibitory activities of the examined chemical compounds were determined by following the formation of uric acid from xanthine according to the reported method by Bondet and co-workers[46]. […] The results were expressed as IC50 determined from the curve.

[16] = biological target: T4, human group X (hG-X) sPLA2 (Homo sapiens, UniProt O15496); experiment: In vitro antiphospholipase activity; format: biochemical
T4 sequence (O15496 43-165): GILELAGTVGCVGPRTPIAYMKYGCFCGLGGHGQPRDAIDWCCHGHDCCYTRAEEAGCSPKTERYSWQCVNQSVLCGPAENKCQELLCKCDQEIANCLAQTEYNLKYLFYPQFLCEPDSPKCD

[17] = biological target: Naja mossambica mossambica sPLA2 (NmPLA2); experiment: In vitro antiphospholipase activity; format: biochemical; details: 20 min preincubation, lecithin substrate, pH 7.6
[18] = system: SW620 cells; experiment: Cytotoxicity assay using the xCELLigence system; format: cell-based, Human; details: SW620, 20 and 40 µg/ml, 3 d, xCELLigence RTCA
Protocol: (§6) The optimal seeding concentration for proliferation of HT-29 was determined. HT-29 cells (5000 cell in 150 µl medium/well) and SW620 cells (12,000 cell in 150 µl medium/well) were seeded in 16 well plates (E-plate 16-ACEA Biosciences Inc., San Diego, CA) as described in the xCELLigence Real Time Cell Analyzer (RTCA) DP instrument manual provided by the manufacturer. After 24 h, 20 and 40 µg/ml of compound 15d were added and the experiments were allowed to run for another 3 d. Baseline cell indexes were calculated for at least two measurements from three replicate experiments.

[19] = system: HT-29 cells; experiment: Cytotoxicity assay using the xCELLigence system; format: cell-based, Human; details: HT-29, 20 and 40 µg/ml, 3 d, xCELLigence RTCA
Protocol: as §6

[20] = biological target: T5, α-glucosidase (Saccharomyces cerevisiae, UniProt P53341); experiment: In vitro inhibition of α-glucosidase activity; format: biochemical
T5 construct: purchased Sigma
T5 sequence (P53341 whole entry): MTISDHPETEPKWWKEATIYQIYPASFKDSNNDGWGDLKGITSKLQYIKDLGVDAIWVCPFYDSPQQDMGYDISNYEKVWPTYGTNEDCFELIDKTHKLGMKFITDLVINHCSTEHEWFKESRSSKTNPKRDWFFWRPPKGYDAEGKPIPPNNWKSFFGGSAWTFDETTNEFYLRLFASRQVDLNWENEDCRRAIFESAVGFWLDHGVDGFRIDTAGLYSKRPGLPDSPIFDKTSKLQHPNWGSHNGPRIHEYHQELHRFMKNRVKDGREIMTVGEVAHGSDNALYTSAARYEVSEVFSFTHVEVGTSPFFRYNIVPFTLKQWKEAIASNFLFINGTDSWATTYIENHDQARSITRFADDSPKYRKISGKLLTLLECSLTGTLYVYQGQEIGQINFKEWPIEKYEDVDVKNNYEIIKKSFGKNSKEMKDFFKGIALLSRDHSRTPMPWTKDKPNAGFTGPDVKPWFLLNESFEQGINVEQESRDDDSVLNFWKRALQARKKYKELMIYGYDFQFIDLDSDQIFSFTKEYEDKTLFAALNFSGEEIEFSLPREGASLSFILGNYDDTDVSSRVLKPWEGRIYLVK
Protocol: The colorimetric assay included 2 U of α-glucosidase, 5 mM of 4-NPGP, and 10 mM potassium phosphate buffer, pH 6.9. […] The reading assay was performed using a microplate reader at 405 nm. […] The results were expressed as IC50 determined from the curve.

Chain of xanthine oxidase (P47989 whole entry, species assumed): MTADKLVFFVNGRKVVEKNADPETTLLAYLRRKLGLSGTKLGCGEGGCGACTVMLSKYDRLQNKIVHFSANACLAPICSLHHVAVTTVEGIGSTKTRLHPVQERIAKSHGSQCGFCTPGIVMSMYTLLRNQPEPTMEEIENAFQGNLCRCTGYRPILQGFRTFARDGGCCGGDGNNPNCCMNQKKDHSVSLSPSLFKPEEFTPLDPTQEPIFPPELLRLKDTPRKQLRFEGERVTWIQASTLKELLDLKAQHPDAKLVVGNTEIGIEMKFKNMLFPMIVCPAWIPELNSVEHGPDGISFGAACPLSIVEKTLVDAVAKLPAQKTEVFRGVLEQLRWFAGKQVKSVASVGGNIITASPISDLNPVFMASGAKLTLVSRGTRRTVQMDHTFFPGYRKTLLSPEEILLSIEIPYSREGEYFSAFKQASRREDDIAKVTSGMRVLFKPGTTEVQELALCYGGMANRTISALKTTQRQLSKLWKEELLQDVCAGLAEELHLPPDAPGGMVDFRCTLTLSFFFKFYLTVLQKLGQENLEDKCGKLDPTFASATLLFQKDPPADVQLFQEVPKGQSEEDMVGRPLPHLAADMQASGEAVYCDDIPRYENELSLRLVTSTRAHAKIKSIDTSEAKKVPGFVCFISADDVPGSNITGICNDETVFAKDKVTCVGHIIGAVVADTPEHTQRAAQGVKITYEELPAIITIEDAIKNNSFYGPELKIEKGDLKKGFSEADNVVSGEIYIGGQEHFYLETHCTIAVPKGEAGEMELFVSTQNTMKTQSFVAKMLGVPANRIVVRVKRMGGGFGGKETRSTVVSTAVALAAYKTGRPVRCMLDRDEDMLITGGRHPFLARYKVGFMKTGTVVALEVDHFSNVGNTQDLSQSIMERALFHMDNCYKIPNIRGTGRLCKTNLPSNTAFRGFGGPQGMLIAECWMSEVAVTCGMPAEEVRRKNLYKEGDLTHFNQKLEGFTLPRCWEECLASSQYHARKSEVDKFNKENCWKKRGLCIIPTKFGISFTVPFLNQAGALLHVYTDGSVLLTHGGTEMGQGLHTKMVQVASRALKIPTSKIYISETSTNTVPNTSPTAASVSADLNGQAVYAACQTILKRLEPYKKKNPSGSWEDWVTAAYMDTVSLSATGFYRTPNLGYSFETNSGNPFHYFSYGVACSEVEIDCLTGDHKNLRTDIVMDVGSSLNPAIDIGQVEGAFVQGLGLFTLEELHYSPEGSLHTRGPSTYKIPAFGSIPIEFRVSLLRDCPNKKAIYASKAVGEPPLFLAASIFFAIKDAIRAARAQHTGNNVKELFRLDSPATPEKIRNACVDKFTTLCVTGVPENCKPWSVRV
Chain of Apis mellifera bee venom (AmPLA2) (P00630 34-167 limits assumed): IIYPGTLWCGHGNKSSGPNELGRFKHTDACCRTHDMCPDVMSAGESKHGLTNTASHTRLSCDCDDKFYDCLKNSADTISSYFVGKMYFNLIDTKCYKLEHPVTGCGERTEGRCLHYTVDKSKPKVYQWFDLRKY

Compound `Cc1ccc2nc(SCC(=O)Nc3c(C)cccc3C)n(-c3ccccc3)c(=O)c2c1` [Compound 15d, N-(2,6-Dimethyl-phenyl)-2-(6-methyl-4-oxo-3-phenyl-3,4-dihydro-quinazolin-2-ylsulfanyl) -acetamide] has an IC50 ([1]; 20 min preincubation, lecithin substrate, pH 7.6, read-out: mean IC50 against hG-V (converted)) of 24.4 µM, an IC50 [2] of about 20 µg/mL (≈ 46.6 µM) and an IC50 [3] of 14 µM. For the same compound, the “mean IC50 against Elastase” value [4] was 15.50 ± 2.12 µg/mL, the “mean IC50 against Collagenase” value [5] was 10.50 ± 0.71 µg/mL and the IC50 ([6]; 15 min preincubation, read-out: mean IC50 against Trypsin (converted)) was 32.6 µM. For the same compound, the IC50 ([7]; 15 min preincubation, read-out: mean IC50 against Cathepsin-B (converted)) was 9.31 µM, the IC50 ([8]; 15 min preincubation, read-out: mean IC50 against Thrombin (converted)) was 39.6 µM and the “expression of BclxL” value [9] was “down regulating; also recorded: inhibited”. For the same compound, the “expression of Bcl2” value [10] was “down regulating; also recorded: inhibited”, the melting point was 229 to 230 °C and the IC50 [11] was 16.6 µM. For the same compound, the viability at 30 µg/mL ([12]; Homo sapiens, SW-620, 24 h, read-out: cell viability) was 36.7%, the “inhibition of cell viability (in words)” value ([12]; SW620, 30 μg/ml, MTT) was “potently capable of inhibiting cell viability” and the “inhibition of cell viability (in words)” value ([13]; HT-29, 30 μg/ml, MTT) was “potently capable of inhibiting cell viability”. For the same compound, the viability at 30 µg/mL ([13]; Homo sapiens, HT-29, 24 h, read-out: cell viability) was 38%, the IC50 [14] was about 20 µg/mL (≈ 46.6 µM) and the IC50 [15] was 165 µM. For the same compound, the IC50 ([16]; 20 min preincubation, lecithin substrate, pH 7.6, read-out: mean IC50 against hG-X (converted)) was 54.7 µM, the “mean IC50 against NmPLA2” value [17] was 8.50 ± 2.12 µg/mL and the “cell proliferation, real time (in words)” value [18] was “inhibit the cell proliferation”. For the same compound, the “cell proliferation, real time (in words)” value [19] was “inhibit the cell proliferation”.
With `COc1cc(-n2c(C)nc3ccccc3c2=O)cc(OC)c1OC` [Compound 5a, 2 -Methyl-3-(3,4,5-trimethoxy-phenyl)-3H-quinazolin-4-one] the IC50 [1] was 29.4 µM, the IC50 [3] was 16.9 µM and the “mean IC50 against Elastase” value [4] was 23.5 ± 0.71 µg/mL. For the same compound, the “mean IC50 against Collagenase” value [5] was 12.25 ± 1.77 µg/mL, the IC50 [6] was 88.9 µM and the IC50 [7] was 25.3 µM. For the same compound, the IC50 [8] was 67.4 µM, the IC50 [20] was 64.3 µM and the melting point was 88 to 90 °C. It also gave an IC50 [11] of 21.4 µM, an IC50 [15] of 22.2 µM and an IC50 [16] of 23.4 µM. The “mean IC50 against NmPLA2” value [17] was 6.00 ± 0.71 µg/mL.
